Biological target: T1, MbRIP1 (type 1 ribosome inactivating protein from Momordica balsamina) (Momordica balsamina, UniProt D9J2T9)
T1 sequence (D9J2T9 1-246): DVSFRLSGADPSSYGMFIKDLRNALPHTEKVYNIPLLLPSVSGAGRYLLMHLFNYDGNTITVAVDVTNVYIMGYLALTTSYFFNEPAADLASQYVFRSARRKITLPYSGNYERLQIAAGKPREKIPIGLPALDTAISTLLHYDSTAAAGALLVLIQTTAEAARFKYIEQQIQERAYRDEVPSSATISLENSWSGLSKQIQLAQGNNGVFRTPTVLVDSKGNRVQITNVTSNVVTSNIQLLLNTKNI
Assay: Binding studies using fluorescence

Kd [µM]	SMILES
~230	Nc1cc[nH]c(=O)n1 [CYS, cytosine]
~5	Nc1ccn([C@@H]2O[C@H](CO)[C@@H](O)[C@H]2O)c(=O)n1 [CYT, cytidine]

Reference: publication PMC5668913 (Biochemistry and Biophysics Reports, 2015)
